Values of other authors as cited in US7098367B2, “Process for the preparation of alkylene glycols” (Saudi Basic Industries Corporation, priority 2004, dated 2006).

Details: value may be measured experimentally, taken from references or estimated

SMILES | pKa
CN(C)c1ccccc1 [Comparative 1, Dimethylaniline, reference compound] | 5.07
NC(=O)NC12CC3CC(CC(C3)C1)C2 [Comparative 3, N-(1-adamantyl)urea, reference compound] | 0.18
NCCN [Example 1, Ethylenediamine (EDA)] | 9.95
C1CCCNCC1 [Example 3, Hexamethyleneimine] | 10
C1CN2CCN1CC2 [Example 5, 1,4-diazabicyclo[2,2,2]octane (DABCO)] | 8.82
CN(C)CCN(C)C [Example 12, Tetramethylethylenediamine (TMEDA)] | 10.72
